Experimental data from article PMC9504587, “Cytotoxic Drimane-Type Sesquiterpenes from Co-Culture of the Marine-Derived Fungi Aspergillus carneus KMM 4638 and Beauveria felina (=Isaria felina) KMM 4639” (Marine Drugs, 2022).
Converted amounts (≈) assume the structure as drawn. Where two headings read alike, the source gives them in different places.

Assays:
[1] = system: normal rat cardiomyocyte H9c2 cell line; assay: MTT cytotoxicity assay, H9c2 cells; assay type: cell-based; conditions: 24 h incubation, mean ± SEM
Experimental: (§1) PC-3, MCF-7, C6, and H9c2 cells were cultured in DMEM medium (Biolot, St. Petersburg, Russia) containing 10% fetal bovine serum (Biolot, St. Petersburg, Russia) and 1% penicillin/streptomycin (Biolot, St. Petersburg, Russia) at 37 °C in a humidified atmosphere with 5% (v/v) CO2. The Raji cells were cultured in RPMI-1640 medium (Biolot, St. Petersburg, Russia) containing 10% fetal bovine serum (Biolot, St. Petersburg, Russia) and 1% penicillin/streptomycin (Biolot, St. Petersburg, Russia) under the same conditions.
(§2) Initially, cells were incubated in culture flasks until subconfluent (~80%). For testing, the cells were seeded at concentrations of 5 × 10^3 cells/well (PC-3, MCF-7, Raji, and C6 cells) or 3 × 10^3 cells/well (H9c2 cells), and experiments were started after 24 h.
(§3) The in vitro cytotoxicity of individual substances was determined by the MTT method (3-(4,5-dimethylthiazol-2-yl)-2,5-diphenyltetrazolium bromide), according to the manufacturer’s instructions (Sigma-Aldrich, St. Louis, MO, USA).
(§4) Investigated compounds were dissolved in DMSO at a concentration of 10 mM.
(§5) The cells were treated with the investigated compounds for 24 h or 48 h, and MTT reagent was added to each well of the plate. The vehicle with DMSO at a concentration of 1% was used as a control. The absorbance of formed formazan was measured at λ = 570 nm using a Multiskan FC microplate photometer (Thermo Scientific, Waltham, MA, USA) and expressed in optical units (o.u.). The results are presented as % of viable cells relative to vehicle, and 50% inhibition concentration of cell viability (IC50) was calculated.

rat glioblastoma C6 = assay: MTT cytotoxicity assay, C6 cells; assay type: cell-based; conditions: 24 h incubation, mean ± SEM
Experimental: as §1, §2, §3, §4, §5

[2] = system: human prostate cancer PC-3; assay: MTT cytotoxicity assay, PC-3 cells; assay type: cell-based; conditions: 24 h incubation, mean ± SEM
Experimental: as §1, §2, §3, §4, §5

human lymphoma Raji = assay: MTT cytotoxicity assay, Raji cells; assay type: cell-based; conditions: 24 h incubation, mean ± SEM
Experimental: as §1, §2, §3, §4, §5

[3] = system: human breast cancer MCF-7; assay: MTT cytotoxicity assay, MCF-7 cells; assay type: cell-based
Experimental: as §1, §2, §3, §4, §5

[4] = system: human hepatocarcinoma HepG2; set-up: method as in doi:10.25135/rnp.294.2109.2194; conditions: cited from earlier work
[5] = system: gastric cancer MKN-45 cells; set-up: method as in doi:10.25135/rnp.294.2109.2194; conditions: cited from earlier work
MCF-7 cells [6] = assay: Apoptosis profile by flow cytometry (Muse annexin V and dead cell kit); assay type: cell-based, human; conditions: 10 µM, 48 h
Experimental: After incubation, culture media were collected; then, cells were washed twice with cold PBS and incubated with trypsin-EDTA solution for 1 min. The cell suspension was washed twice by centrifugated at 250× g for 4 min with cold PBS and used for apoptosis detection by a Muse® annexin V and dead cell kit in accordance with manufacturer’s instructions (Luminex, Austin, TX, USA). Fluorescence was measured with a Muse® cell analyzer (Luminex, Austin, TX, USA), and data were processed by Muse 1.5 analysis software (Luminex, Austin, TX, USA). The proportion of apoptotic cells was expressed as a percentage.

MCF-7 cells [7] = assay: Total caspase activity by flow cytometry (Muse multicaspase kit); assay type: cell-based, human; conditions: 10 µM, 48 h; control 4.7%
Experimental: The influence of the compounds on the percentage of live MCF-7 cells (caspase−/7-AAD−), live MCF-7 cells with caspase activity (caspase+/7-AAD−), dead MCF-7 cells with caspase activity […] MCF-7 cells (caspase−/7-AAD+) was measured by a Muse® multicaspase kit (Luminex, Austin, TX, USA). The kit utilizes a VAD-peptide derivatized with a fluorescent group called fluorescent-labeled inhibitor of caspases (FLICA). The peptide binds to activated caspases, resulting in a fluorescent signal proportional to the number of active caspases in the cell. Fluorescent dye 7-AAD was used as a dead cell marker in this assay.
After incubation, culture media were collected, and cells were washed twice with cold PBS and incubated in trypsin-EDTA solution for 1 min. The cell suspension was washed twice by centrifugation at 250× g for 4 min with cold PBS and then used for caspase activity detection by a Muse® multicaspase kit (caspases 1, 3, 4, 5, 6, 7, 8, and 9) in accordance with manufacturer’s instructions (Luminex, Austin, TX, USA). Fluorescence was measured with a Muse® cell analyzer (Luminex, Austin, TX, USA), and data were processed by Muse 1.5 analysis software (Luminex, Austin, TX, USA).

MCF-7 cells [8] = assay: Cell cycle analysis by flow cytometry (propidium iodide); assay type: cell-based, human; conditions: 10 µM, 48 h
Experimental: After incubation, cells were trypsinized, harvested, washed with PBS, and fixed with ice-cold 70% ethanol in a dropwise manner prior to storage at −20 °C overnight. The cells were then washed with PBS, incubated with 200 μg/mL RNAse (PanReac, AppliChem, Darmstadt, Germany) and 20 μg/mL of propidium iodide (Sigma-Aldrich, St. Louis, MO, USA) for 30 min at 37 °C, and the DNA content was analyzed with a Muse® cell analyzer (Luminex, Austin, TX, USA). The data were processed by Muse 1.5 analysis software (Luminex, Austin, TX, USA). The proportion of cells in each phase of the cell cycle was expressed as a percentage.

[9] = system: H9c2, C6, PC-3, Raji and MCF-7 cells; assay: MTT cytotoxicity, summary statements over several cell lines; assay type: cell-based; conditions: 24 h
Experimental: as §3, §4, §5

PTP1B = molecular target: PTP1B; set-up: method as in earlier work; conditions: cell-free assay; cited from earlier work
SHP2 = molecular target: SHP2; set-up: method as in earlier work; conditions: cell-free assay; cited from earlier work
[10] = Homo sapiens, MCF7, 24 h, 24 h incubation, mean ± SEM, read-out: IC50, MCF-7
[11] = 24 h incubation, mean ± SEM, read-out: IC50, MCF-7

SMILES	IC50 ([1]; Rattus norvegicus, H9c2, 24 h) [µM]	IC50 (rat glioblastoma C6; Rattus norvegicus, C6, 24 h) [µM]	IC50 ([2]; Homo sapiens, PC-3, 24 h) [µM]	IC50 (human lymphoma Raji; Homo sapiens, Raji, 24 h) [µM]	IC50 [3, 10] [µM]	IC50 [1] [µM]	IC50 (rat glioblastoma C6) [µM]	IC50 [2] [µM]	IC50 (human lymphoma Raji) [µM]	IC50 [3, 11] [µM]	also measured
CC(O)C(O)C=CC=CC(=O)OC1C=C(CO)C(O)(CO)C2(C)CCCC(C)(C)C12 (stereo not shown) [Compound 1, asperflavinoid A]	84.2 ± 3.3	102 ± 1.7	85.3 ± 2.9	> 100	59 ± 4.4	–	–	–	–	–	IC50 [4]: 84.4 µM; IC50 [5]: 63.2 µM
CC(O)C(O)C=CC=CC(=O)OC1C=C(CO)C(O)(CO)C2(C)CCCC(C)(C)C12 (stereo not shown) [Compound 2, asperflavinoid B]	–	–	–	–	–	74.4 ± 4.4	> 100	75.2 ± 3.8	> 100	54.1 ± 2.4	–
CC1(C)CCC[C@@]2(C)[C@H]1[C@H](OC(=O)/C=C/C=C/C=O)C=C1CO[C@@H](O)[C@@]12O [Compound 3, asperflavinoid C]	55.6 ± 2.6	56 ± 1.2	50.8 ± 1.6	82.3 ± 2.9	33.8 ± 2.2	–	–	–	–	–	decrease in MCF-7 cell viability ([3]; 10 µM, 48 h): ~50%; IC50 ([3]; Homo sapiens, MCF7, 48 h, 48 h incubation, concentrations up to 10 µM, read-out: IC50, MCF-7 cell viability, prolonged incubation): 10 µM; amount of apoptotic cells (early and late) (MCF-7 cells [6]; control 1.7%): 15.0%; amount of living cells (MCF-7 cells [6]; control 98.6%): 84.9%; percentage of cells exhibiting caspase activity (living and 7-AAD-labeled) (MCF-7 cells [7]): 12.3%; subG0 cells (MCF-7 cells [8]; control 5.4%): 34.6%; decrease in the percentage of cells in the S phase (MCF-7 cells [8]; relative to control): 54.5%; increase of the percentage of cells in the G2/M phase (MCF-7 cells [8]; relative to control): 25.2%; reduction of the percentage of cells in the G0/G1 phase (MCF-7 cells [8]; relative to control): 30.9%; increase of the subG0 population of cells (MCF-7 cells [8]; versus control): 6.4 times; IC50 ([9]; range over both compounds and three cell lines): 54.3 to 88.1 µM; IC50, PTP1B enzyme activity (PTP1B): 2.8 mg/L (≈ 7.44 µM); IC50, SHP2 enzyme activity (SHP2): 3.0 mg/L (≈ 7.97 µM)
CC(O)C(O)C=CC=CC(=O)OC1C=C2COC(O)C2(O)C2(C)CCCC(C)(C)C12 (stereo not shown) [Compound 4, asperflavinoid D]	59.3 ± 1.7	> 100	57.4 ± 2.4	85.7 ± 6	75 ± 6.2	–	–	–	–	–	–
CC(O)C(O)C=CC=CC(=O)OC1C=C2COC(O)C2(O)C2(C)CCCC(C)(C)C12 (stereo not shown) [Compound 5, asperflavinoid E]	–	–	–	–	–	63.9 ± 1.6	> 100	59.1 ± 0.8	94.4 ± 2.3	80.6 ± 3.5	–
CC1(C)CCC[C@@]2(C)[C@H]1[C@H](O)C=C1COC(=O)[C@@]12O [Compound 8, strobilactone A]	> 100	> 100	> 100	> 100	> 100	–	–	–	–	–	influence on the viability of the tested cells ([9]; up to a concentration of 100 µM): did not influence the viability
